Experimental findings from US9321764B2, “Dihydro-pyrrolopyridinone inhibitors” (AbbVie Inc., priority 2013, dated 2016) are described below.

The target in one experiment is T1, BRD4 (BDI_K57-E168) (Homo sapiens, UniProt O60885).
T1 construct: BD1: amino acids K57-E168; made in house
Nature of the experiment: TR-FRET bromodomain binding assay, first bromodomain of BRD4. The following applies: His-tagged BD1, 100 nM Alexa647 probe; TR-FRET protocol A-E given per row. Summed up:
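His-tagged BRD4 BD1 (K57-E168), 8 nM, with 1 nM Eu-anti-His antibody and 100 nM Alexa647-labelled BET-inhibitor probe in pH 6.0 phosphate buffer, 2% DMSO. TR-FRET read after 1 h at room temperature. IC50 from 4-parameter fit, converted to Ki using probe Kd and concentration.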

For another experiment, the target named is T2, BRD4 (BDII_E352-M457) (Homo sapiens, UniProt O60885).
T2 construct: proliferation; Protocol; made in house
In words: TR-FRET bromodomain binding assay, second bromodomain of BRD4. The following applies: His-tagged BD2, 30 nM Alexa647 probe; TR-FRET protocol A-E given per row. Summed up: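 His-tagged BRD4 BD2 ([…]) competed against an Alexa647-labelled BET-inhibitor probe in TR-FRET. Buffer was 20 mM sodium phosphate pH 6.0, 50 mM NaCl, 1 mM EDTA, 0.01% Triton X-100, 1 mM DTT, with method D DMSO series of 2.5 mM–800 nM (stock range). IC50 from 4-parameter fit, Ki from probe Kd and concentration.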

Structures are written as SMILES.

Take `Cn1cc(-c2cc(NC(=O)CCc3ccccc3)ccc2Oc2ccc(F)cc2F)c2cc[nH]c(=O)c21` [Example 152, N-[4-(2,4-difluorophenoxy)-3-(1-methyl-7-oxo-6,7-dihydro-1H-pyrrolo[2,3-c]pyridin-3-yl)phenyl]-3-phenylpropanamide]: the Ki was found to be 0.141 µM on BRD4 (BDI_K57-E168) and 0.0953 µM on BRD4 (BDII_E352-M457).
The matching figures for `Cn1cc(-c2cc(NC(=O)CCCOc3ccccc3)ccc2Oc2ccc(F)cc2F)c2cc[nH]c(=O)c21` [Example 153, N-[4-(2,4-difluorophenoxy)-3-(1-methyl-7-oxo-6,7-dihydro-1H-pyrrolo[2,3-c]pyridin-3-yl)phenyl]-4-phenoxybutanamide]: 0.321 µM and 0.293 µM.
The matching figures for `Cn1cc(-c2cc(NC(=O)c3ccc(COc4ccccc4)cc3)ccc2Oc2ccc(F)cc2F)c2cc[nH]c(=O)c21` [Example 156, N-[4-(2,4-difluorophenoxy)-3-(1-methyl-7-oxo-6,7-dihydro-1H-pyrrolo[2,3-c]pyridin-3-yl)phenyl]-4-(phenoxymethyl)benzamide]: 0.598 µM and above 0.92 µM.
The matching figures for `Cn1cc(-c2cc(NC(=O)C3CCN(c4ccccc4)C3=O)ccc2Oc2ccc(F)cc2F)c2cc[nH]c(=O)c21` (centres unmarked) [Example 157, N-[4-(2,4-difluorophenoxy)-3-(1-methyl-7-oxo-6,7-dihydro-1H-pyrrolo[2,3-c]pyridin-3-yl)phenyl]-2-oxo-1-phenylpyrrolidine-3-carboxamide]: 0.118 µM and 0.333 µM.
In the case of `Cn1cc(-c2cc(NC(=O)Cc3noc4ccccc34)ccc2Oc2ccc(F)cc2F)c2cc[nH]c(=O)c21` [Example 158, 2-(1,2-benzoxazol-3-yl)-N-[4-(2,4-difluorophenoxy)-3-(1-methyl-7-oxo-6,7-dihydro-1H-pyrrolo[2,3-c]pyridin-3-yl)phenyl]acetamide], the Ki at BRD4 (BDI_K57-E168) turned out to be 0.0764 µM; at BRD4 (BDII_E352-M457), 0.153 µM.
The matching figures for `Cn1cc(-c2cc(NC(=O)Cc3cc(Cl)ccc3F)ccc2Oc2ccc(F)cc2F)c2cc[nH]c(=O)c21` [Example 159, 2-(5-chloro-2-fluorophenyl)-N-[4-(2,4-difluorophenoxy)-3-(1-methyl-7-oxo-6,7-dihydro-1H-pyrrolo[2,3-c]pyridin-3-yl)phenyl]acetamide]: 0.0624 µM and 0.0596 µM.
The matching figures for `Cn1cc(-c2cc(NC(=O)Cc3ccc(Cl)cc3F)ccc2Oc2ccc(F)cc2F)c2cc[nH]c(=O)c21` [Example 160, 2-(4-chloro-2-fluorophenyl)-N-[4-(2,4-difluorophenoxy)-3-(1-methyl-7-oxo-6,7-dihydro-1H-pyrrolo[2,3-c]pyridin-3-yl)phenyl]acetamide]: 0.101 µM and above 0.408 µM.
Taken in the same sequence, the figures for `Cc1ccc(CC(=O)Nc2ccc(Oc3ccc(F)cc3F)c(-c3cn(C)c4c(=O)[nH]ccc34)c2)cn1` [Example 161, N-[4-(2,4-difluorophenoxy)-3-(1-methyl-7-oxo-6,7-dihydro-1H-pyrrolo[2,3-c]pyridin-3-yl)phenyl]-2-(6-methylpyridin-3-yl)acetamide] were above 0.238 µM and 0.0791 µM.
Take `Cn1cc(-c2cc(NC(=O)Cc3ccc4c(c3)CCCO4)ccc2Oc2ccc(F)cc2F)c2cc[nH]c(=O)c21` [Example 162, N-[4-(2,4-difluorophenoxy)-3-(1-methyl-7-oxo-6,7-dihydro-1H-pyrrolo[2,3-c]pyridin-3-yl)phenyl]-2-(3,4-dihydro-2H-chromen-6-yl)acetamide]: the Ki on BRD4 (BDI_K57-E168) stood at 0.146 µM; on BRD4 (BDII_E352-M457) it was 0.183 µM.
In the case of `Cc1ncc(CC(=O)Nc2ccc(Oc3ccc(F)cc3F)c(-c3cn(C)c4c(=O)[nH]ccc34)c2)s1` [Example 163, N-[4-(2,4-difluorophenoxy)-3-(1-methyl-7-oxo-6,7-dihydro-1H-pyrrolo[2,3-c]pyridin-3-yl)phenyl]-2-(2-methyl-1,3-thiazol-5-yl)acetamide], the Ki at BRD4 (BDI_K57-E168) worked out at 0.024 µM; at BRD4 (BDII_E352-M457), 0.0813 µM.
Taken in the same sequence, the figures for `Cc1cc(CC(=O)Nc2ccc(Oc3ccc(F)cc3F)c(-c3cn(C)c4c(=O)[nH]ccc34)c2)nn1C` [Example 164, N-[4-(2,4-difluorophenoxy)-3-(1-methyl-7-oxo-6,7-dihydro-1H-pyrrolo[2,3-c]pyridin-3-yl)phenyl]-2-(1,5-dimethyl-1H-pyrazol-3-yl)acetamide] were 0.011 µM and 0.073 µM.
Consider `Cn1cc(-c2cc(NC(=O)Cn3cc(-c4ccccc4F)cn3)ccc2Oc2ccc(F)cc2F)c2cc[nH]c(=O)c21` [Example 165, N-[4-(2,4-difluorophenoxy)-3-(1-methyl-7-oxo-6,7-dihydro-1H-pyrrolo[2,3-c]pyridin-3-yl)phenyl]-2-[4-(2-fluorophenyl)-1H-pyrazol-1-yl]acetamide], for which the Ki at BRD4 (BDI_K57-E168) was 0.214 µM; at BRD4 (BDII_E352-M457) it was 0.105 µM.
Taken in the same sequence, the figures for `COC(=O)/C=C/N(c1ccc(F)cc1)c1ccc(CS(C)(=O)=O)cc1-c1cn(C)c2c(=O)[nH]ccc12` [Example 166, methyl (2E)-3-[(4-fluorophenyl) {2-(1-methyl-7-oxo-6,7-dihydro-1H-pyrrolo[2,3-c]pyridin-3-yl)-4-[(methylsulfonyl)methyl]phenyl}amino]prop-2-enoate] were 0.109 µM and 0.047 µM.
Taken in the same sequence, the figures for `COc1ccc(Oc2cccc(CNc3ccc(Oc4ccc(F)cc4F)c(-c4cn(C)c5c(=O)[nH]ccc45)c3)c2)cc1` [Example 168, 3-[2-(2,4-difluorophenoxy)-5-{[3-(4-methoxyphenoxy)benzyl]amino}phenyl]-1-methyl-1,6-dihydro-7H-pyrrolo[2,3-c]pyridin-7-one] were 0.386 µM and 1.2 µM.
The matching figures for `Cn1cc(-c2cc(NCc3cccc(C#N)c3)ccc2Oc2ccc(F)cc2F)c2cc[nH]c(=O)c21` [Example 172, 3-({[4-(2,4-difluorophenoxy)-3-(1-methyl-7-oxo-6,7-dihydro-1H-pyrrolo[2,3-c]pyridin-3-yl)phenyl]amino}methyl)benzonitrile]: 0.071 µM and 0.226 µM.
`Cn1cc(-c2cc(NCc3ccc(Oc4ccccc4)cc3)ccc2Oc2ccc(F)cc2F)c2cc[nH]c(=O)c21` [Example 173, 3-{2-(2,4-difluorophenoxy)-5[(4-phenoxybenzyl)amino]phenyl}-1-methyl-1,6-dihydro-7H-pyrrolo[2,3-c]pyridin-7-one]: the values for the Ki on BRD4 (BDI_K57-E168) and at BRD4 (BDII_E352-M457) were 0.214 µM and 0.781 µM, respectively.
Turning to `Cn1cc(-c2cc(NCCC(C)(C)C)ccc2Oc2ccc(F)cc2F)c2cc[nH]c(=O)c21` [Example 174, 3-{2-(2,4-difluorophenoxy)-5-[(3,3-dimethylbutyl)amino]phenyl}-1-methyl-1,6-dihydro-7H-pyrrolo[2,3-c]pyridin-7-one], the results for the Ki on BRD4 (BDI_K57-E168) and at BRD4 (BDII_E352-M457) were 0.0575 µM and 0.215 µM, respectively.
The matching figures for `Cn1cc(-c2cc(NCc3c(F)cccc3F)ccc2Oc2ccc(F)cc2F)c2cc[nH]c(=O)c21` [Example 175, 3-{5-[(2,6-difluorobenzyl)amino]-2-(2,4-difluorophenoxy)phenyl}-1-methyl-1,6-dihydro-7H-pyrrolo[2,3-c]pyridin-7-one]: 0.0691 µM and 0.285 µM.
Taken in the same sequence, the figures for `Cn1cc(-c2cc(NCc3ccnc4ccccc34)ccc2Oc2ccc(F)cc2F)c2cc[nH]c(=O)c21` [Example 179, 3-{2-(2,4-difluorophenoxy)-5-[(quinolin-4-ylmethyl)amino]phenyl}-1-methyl-1,6-dihydro-7H-pyrrolo[2,3-c]pyridin-7-one] were 0.0699 µM and 0.231 µM.
